According to patent publication US8822549B2, “Buffered oxygen therapeutic” (priority 2011, dated 2014):

Experiments:
hypoxic tumors [1] = conditions: administered systemically, oxygen via inhalation; published studies; cited from earlier work
hypoxic tumors [2] = test: Published studies: fluorocarbons as O2 delivery agents to sensitize hypoxic tumors to radiation therapy; type: in vivo; conditions: versus the liquid fluorocarbons fluosol and perfluoroctylbromide
Experimental: In these studies, fluorocarbons were administered systemically and oxygen was administered via inhalation to sensitize hypoxic tumors to radiation therapy. PFOB was effective at less than 1/100th the dose of the liquid fluorocarbons fluosol and […].

Structure (SMILES): FC(F)(F)C(F)(F)C(F)(F)C(F)(F)C(F)(F)C(F)(F)C(F)(F)C(F)(F)Br [PFOB, perfluoroctylbromide]
- Volume (dose as O2 delivery agent) (hypoxic tumors [1]): 0.002 to 0.015 L/kg
- g/kg (fluorocarbon dose as O2 delivery agent) (hypoxic tumors [1]): 2 to 15 g/kg
- effective dose as a fraction of the dose of liquid fluorocarbons (hypoxic tumors [2]): less than 1/100
